Laboratory results: patent publication US20090312288A1 (TAKEDA PHARMACEUTICAL COMPANY LIMITED, priority 2008, published 2009)

Biological target: Aurora B/INCENP (Homo sapiens, UniProt Q96GD4)
Assay: Determination of inhibition of AIK: Aurora B/INCENP direct fluorescence polarization (IMAP) assay
Assay type: biochemical
Conditions: 10 uM ATP, 0.8 nM Aurora B/INCENP; values given as bins; read-out: IC50 of Exemplified Compounds Against AIK B

Sequence of Aurora B/INCENP (Q96GD4 whole entry): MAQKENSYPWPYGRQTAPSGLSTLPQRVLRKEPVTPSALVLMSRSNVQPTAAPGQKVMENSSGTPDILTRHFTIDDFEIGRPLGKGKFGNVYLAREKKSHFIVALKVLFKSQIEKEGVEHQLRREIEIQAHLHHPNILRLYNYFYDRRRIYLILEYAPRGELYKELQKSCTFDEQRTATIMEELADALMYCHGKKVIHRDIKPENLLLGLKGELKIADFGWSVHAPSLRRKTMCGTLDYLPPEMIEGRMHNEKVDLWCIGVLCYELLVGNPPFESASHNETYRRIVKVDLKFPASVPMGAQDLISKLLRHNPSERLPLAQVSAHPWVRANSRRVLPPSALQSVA
Sequence of Aurora B/INCENP (Q9NQS7 whole entry partner): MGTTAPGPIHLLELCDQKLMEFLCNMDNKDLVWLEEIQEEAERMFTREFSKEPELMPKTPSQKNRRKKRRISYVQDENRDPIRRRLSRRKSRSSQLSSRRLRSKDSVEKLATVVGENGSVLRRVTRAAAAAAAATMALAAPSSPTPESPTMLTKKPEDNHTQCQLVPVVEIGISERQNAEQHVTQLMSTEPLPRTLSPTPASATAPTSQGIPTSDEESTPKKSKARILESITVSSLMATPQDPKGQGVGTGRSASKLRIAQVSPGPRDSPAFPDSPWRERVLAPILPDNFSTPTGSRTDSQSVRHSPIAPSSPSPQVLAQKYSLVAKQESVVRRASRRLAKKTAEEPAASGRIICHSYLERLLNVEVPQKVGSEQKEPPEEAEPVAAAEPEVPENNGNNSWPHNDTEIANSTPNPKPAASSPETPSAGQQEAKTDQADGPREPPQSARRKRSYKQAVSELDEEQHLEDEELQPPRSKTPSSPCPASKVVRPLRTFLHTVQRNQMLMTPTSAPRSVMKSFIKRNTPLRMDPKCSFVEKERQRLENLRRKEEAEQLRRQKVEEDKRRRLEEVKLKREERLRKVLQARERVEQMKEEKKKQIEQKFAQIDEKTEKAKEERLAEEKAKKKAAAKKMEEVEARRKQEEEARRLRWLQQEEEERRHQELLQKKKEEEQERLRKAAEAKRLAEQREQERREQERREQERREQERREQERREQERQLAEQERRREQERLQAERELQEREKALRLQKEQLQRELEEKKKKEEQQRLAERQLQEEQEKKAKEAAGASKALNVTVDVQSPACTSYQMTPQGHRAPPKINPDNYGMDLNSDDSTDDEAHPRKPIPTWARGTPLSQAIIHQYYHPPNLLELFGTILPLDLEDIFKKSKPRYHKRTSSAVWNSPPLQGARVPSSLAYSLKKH

| SMILES | IC50 [nM] |
| --- | --- |
| Cc1cnc2[nH]c3c(C)c(C(=O)NC4CCN(C)CC4)cc(-c4cccc(C(=O)NC5CC5)c4)c3c2c1 [Compound 228, 5-(3-(cyclopropylcarbamoyl)phenyl)-3,8-dimethyl-N-(1-methylpiperidin-4-yl)-9H-pyrido[2,3-b]indole-7-carboxamide] | > 13 |
| CCS(=O)(=O)c1cccc(-c2ccc(OC[C@@H](O)CO)c3[nH]c4ncc(C)cc4c23)c1 [Compound 230, (S)-3-(5-(3-(ethylsulfonyl)phenyl)-3-methyl-9H-pyrido[2,3-b]indol-8-yloxy)propane-1,2-diol] | 4 to 5.5 |
| CCS(=O)(=O)c1cccc(-c2ccc(OC[C@H](O)CO)c3[nH]c4ncc(C)cc4c23)c1 [Compound 231, (R)-3-(5-(3-(ethylsulfonyl)phenyl)-3-methyl-9H-pyrido[2,3-b]indol-8-yloxy)propane-1,2-diol] | < 4 |
| CCS(=O)(=O)c1cccc(-c2ccc(OC[C@H](O)CN(C)C)c3[nH]c4ncc(C)cc4c23)c1 [Compound 232, (R)-1-(dimethylamino)-3-(5-(3-(ethylsulfonyl)phenyl)-3-methyl-9H-pyrido[2,3-b]indol-8-yloxy)propan-2-ol] | 5.6 to 8.5 |
| CCS(=O)(=O)c1cccc(-c2ccc(OC[C@@H](C)O)c3[nH]c4ncc(C)cc4c23)c1 [Compound 233, (R)-1-(5-(3-(ethylsulfonyl)phenyl)-3-methyl-9H-pyrido[2,3-b]indol-8-yloxy)propan-2-ol] | 5.6 to 8.5 |
| CCS(=O)(=O)c1cccc(-c2ccc(OC[C@H](C)O)c3[nH]c4ncc(C)cc4c23)c1 [Compound 234, (S)-1-(5-(3-(ethylsulfonyl)phenyl)-3-methyl-9H-pyrido[2,3-b]indol-8-yloxy)propan-2-ol] | 4 to 5.5 |
| CCS(=O)(=O)c1cccc(-c2cc(NC(=O)CCN(C)C)c(OC)c3[nH]c4ncc(C)cc4c23)c1 [Compound 240, 3-(dimethylamino)-N-(5-(3-(ethylsulfonyl)phenyl)-8-methoxy-3-methyl-9H-pyrido[2,3-b]indol-7-yl)propanamide] | 5.6 to 8.5 |
| CCS(=O)(=O)c1cccc(-c2cc(NC(=O)C3CC3)c(OC)c3[nH]c4ncc(C)cc4c23)c1 [Compound 242, N-(5-(3-(ethylsulfonyl)phenyl)-8-methoxy-3-methyl-9H-pyrido[2,3-b]indol-7-yl)-cyclopropanecarboxamide] | 8.6 to 13 |
| CCS(=O)(=O)c1cccc(-c2cc(NC(=O)C3CCN(C(C)=O)CC3)c(OC)c3[nH]c4ncc(C)cc4c23)c1 [Compound 243, 1-acetyl-N-(5-(3-(ethylsulfonyl)phenyl)-8-methoxy-3-methyl-9H-pyrido[2,3-b]indol-7-yl)piperidine-4-carboxamide] | 8.6 to 13 |
| CCS(=O)(=O)c1cccc(-c2cc(Cl)c(OC)c3[nH]c4ncc(C)cc4c23)c1 [Compound 246, 7-chloro-5-(3-(ethylsulfonyl)phenyl)-8-methoxy-3-methyl-9H-pyrido[2,3-b]indole] | 5.6 to 8.5 |
| CCS(=O)(=O)c1cccc(-c2cc(Cl)c(OCCCO)c3[nH]c4ncc(C)cc4c23)c1 [Compound 248, 3-(7-chloro-5-(3-(ethylsulfonyl)phenyl)-3-methyl-9H-pyrido[2,3-b]indol-8-yloxy)propan-1-ol] | > 13 |
| CCS(=O)(=O)c1cccc(-c2cc(N(C)C(=O)C3CC3)c(OC)c3[nH]c4ncc(C)cc4c23)c1 [Compound 253, N-(5-(3-(ethylsulfonyl)phenyl)-8-methoxy-3-methyl-9H-pyrido[2,3-b]indol-7-yl)-N-methylcyclopropanecarboxamide] | > 13 |
| CCS(=O)(=O)c1cccc(-c2cc(N(C)C(=O)CCN(C)C)c(OC)c3[nH]c4ncc(C)cc4c23)c1 [Compound 254, 3-(dimethylamino)-N-(5-(3-(ethylsulfonyl)phenyl)-8-methoxy-3-methyl-9H-pyrido[2,3-b]indol-7-yl)-N-methylpropanamide] | > 13 |
| CCS(=O)(=O)c1cccc(-c2ccc(OCCN3CCOCC3)c3[nH]c4ncc(Cl)cc4c23)c1 [Compound 255, 4-(2-(3-chloro-5-(3-(ethylsulfonyl)phenyl)-9H-pyrido[2,3-b]indol-8-yloxy)ethyl)morpholine] | > 13 |
| CCS(=O)(=O)c1cccc(-c2ccc(OCCC#N)c3[nH]c4ncc(Cl)cc4c23)c1 [Compound 256, 3-(3-chloro-5-(3-(ethylsulfonyl)phenyl)-9H-pyrido[2,3-b]indol-8-yloxy)propanenitrile] | > 13 |
| CCS(=O)(=O)c1cccc(-c2ccc(OCCCN(C)C)c3[nH]c4ncc(C(F)(F)F)cc4c23)c1 [Compound 258, 3-(5-(3-(ethylsulfonyl)phenyl)-3-(trifluoromethyl)-9H-pyrido[2,3-b]indol-8-yloxy)-N,N-dimethylpropan-1-amine] | > 13 |
| COc1ccc(-c2cccc(C(=O)N3CCOCC3)c2)c2c1[nH]c1ncc(C)cc12 [Compound 259, (3-(8-methoxy-3-methyl-9H-pyrido[2,3-b]indol-5-yl)phenyl)(morpholino)methanone] | > 13 |

| SMILES | IC50 [nM] |
| --- | --- |
| CONC(=O)c1cccc(-c2ccc(OC)c3[nH]c4ncc(C)cc4c23)c1 [Compound 260, N-methoxy-3-(8-methoxy-3-methyl-9H-pyrido[2,3-b]indol-5-yl)benzamide] | > 13 |
| CCN(CC)CCNC(=O)c1cc(-c2cccc(S(=O)(=O)CC)c2)c2c([nH]c3ncc(C)cc32)c1C [Compound 262, N-(2-(diethylamino)ethyl)-5-(3-(ethylsulfonyl)phenyl)-3,8-dimethyl-9H-pyrido[2,3-b]indole-7-carboxamide] | 8.6 to 13 |
| CCN(CCO)CCCOc1ccc(-c2cccc(S(=O)(=O)C3CC3)c2)c2c1[nH]c1ncc(C)cc12 [Compound 270, 2-((3-(5-(3-(cyclopropylsulfonyl)phenyl)-3-methyl-9H-pyrido[2,3-b]indol-8-yloxy)propyl)(ethyl)amino)ethanol] | 4 to 5.5 |
| CCN(CCCOc1ccc(-c2cccc(S(=O)(=O)C3CC3)c2)c2c1[nH]c1ncc(C)cc12)CCOP(=O)(O)O [Compound 272, 2-((3-(5-(3-(cyclopropylsulfonyl)phenyl)-3-methyl-9H-pyrido[2,3-b]indol-8-yloxy)propyl)(ethyl)amino)ethyl dihydrogen phosphate] | 5.6 to 8.5 |
| CCN(CCO)CCCOc1ccc(-c2cccc(C(=O)NC3CC3)c2)c2c1[nH]c1ncc(C)cc12 [Compound 273, N-cyclopropyl-3-(8-(3-(ethyl(2-hydroxyethyl)amino)propoxy)-3-methyl-9H-pyrido[2,3-b]indol-5-yl)benzamide] | 5.6 to 8.5 |
| CCN(CCCOc1ccc(-c2cccc(C(=O)NC3CC3)c2)c2c1[nH]c1ncc(C)cc12)CCOP(=O)(O)O [Compound 275, 2-((3-(5-(3-(cyclopropylcarbamoyl)phenyl)-3-methyl-9H-pyrido[2,3-b]indol-8-yloxy)propyl)(ethyl)amino)ethyl dihydrogen phosphate] | 5.6 to 8.5 |
| CCN(CCO)CCCOc1ccc(-c2cccc(S(=O)(=O)CC)c2)c2c1[nH]c1ncc(C)cc12 [Compound 276, 2-(ethyl(3-(5-(3-(ethylsulfonyl)phenyl)-3-methyl-9H-pyrido[2,3-b]indol-8-yloxy)propyl)amino)ethanol] | 5.6 to 8.5 |
| CCN(CCCOc1ccc(-c2cccc(S(=O)(=O)CC)c2)c2c1[nH]c1ncc(C)cc12)CCOP(=O)(O)O [Compound 278, 2-(ethyl(3-(5-(3-(ethylsulfonyl)phenyl)-3-methyl-9H-pyrido[2,3-b]indol-8-yloxy)propyl)amino)ethyl dihydrogen phosphate] | 4 to 5.5 |
| CN1CCC(COc2ccc(-c3cccc(C(=O)NC4CC4)c3)c3c2[nH]c2ncc(Cl)cc23)CC1 [Compound 285, 3-(3-chloro-8-((1-methylpiperidin-4-yl)methoxy)-9H-pyrido[2,3-b]indol-5-yl)-N-cyclopropylbenzamide] | 8.6 to 13 |
| CN1CCC(COc2ccc(-c3cccc(S(=O)(=O)C4CC4)c3)c3c2[nH]c2ncc(Cl)cc23)CC1 [Compound 286, 3-chloro-5-(3-(cyclopropylsulfonyl)phenyl)-8-((1-methylpiperidin-4-yl)methoxy)-9H-pyrido[2,3-b]indole] | 8.6 to 13 |
| CCS(=O)(=O)c1cccc(-c2ccc(OCC3CCN(C)CC3)c3[nH]c4ncc(F)cc4c23)c1 [Compound 287, 5-(3-(ethylsulfonyl)phenyl)-3-fluoro-8-((1-methylpiperidin-4-yl)methoxy)-9H-pyrido[2,3-b]indole] | 5.6 to 8.5 |
| CCS(=O)(=O)c1cccc(-c2ccc(OCCCO)c3[nH]c4ncc(Cl)cc4c23)c1 [Compound 291, 3-(3-chloro-5-(3-(ethylsulfonyl)phenyl)-9H-pyrido[2,3-b]indol-8-yloxy)propan-1-ol] | < 4 |
| CCN(CCO)CCCOc1ccc(-c2cccc(S(=O)(=O)CC)c2)c2c1[nH]c1ncc(Cl)cc12 [Compound 293, 2-((3-(3-chloro-5-(3-(ethylsulfonyl)phenyl)-9H-pyrido[2,3-b]indol-8-yloxy)propyl)(ethyl)amino)ethanol] | < 4 |
| CCN(CCCOc1ccc(-c2cccc(S(=O)(=O)CC)c2)c2c1[nH]c1ncc(Cl)cc12)CCOP(=O)(O)O [Compound 294, 2-((3-(3-chloro-5-(3-(ethylsulfonyl)phenyl)-9H-pyrido[2,3-b]indol-8-yloxy)propyl)(ethyl)amino)ethyl dihydrogen phosphate] | < 4 |
| CCN(CCO)CCCOc1ccc(-c2cccc(S(=O)(=O)C3CC3)c2)c2c1[nH]c1ncc(Cl)cc12 [Compound 298, 2-((3-(3-chloro-5-(3-(cyclopropylsulfonyl)phenyl)-9H-pyrido[2,3-b]indol-8-yloxy)propyl)(ethyl)amino)ethanol] | < 4 |
| Cc1cnc2[nH]c3c(OCCCN4CCC(O)CC4)ccc(-c4cccc(S(=O)(=O)C5CC5)c4)c3c2c1 [Compound 300, 1-(3-(5-(3-(cyclopropylsulfonyl)phenyl)-3-methyl-9H-pyrido[2,3-b]indol-8-yloxy)propyl)piperidin-4-ol] | < 4 |
| CCS(=O)(=O)c1cccc(-c2ccc(OCCCn3ccnc3)c3[nH]c4ncc(Cl)cc4c23)c1 [Compound 301, 8-(3-(1H-imidazol-1-yl)propoxy)-3-chloro-5-(3-(ethylsulfonyl)phenyl)-9H-pyrido[2,3-b]indole] | < 4 |
